Some test systems named below: 786-0; CAKI-1; COLO 205; HL-60; LOX IMVI; M14; MDA-MB-231; MDA-MB-435; MDA-N; MOLT-4; NCI-H226; NCI/ADR-RES; OVCAR-4; RPMI-8226; SK-MEL-5; SN12C; T47D; U-251; UACC-62; UO-31.
Holding throughout (experiment): DTP human tumour cell line panel, 48 h

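Method: 48-hour compound exposure of cells in 96-well plates, five concentrations, linear interpolation of endpoints. Abbreviation: GI50, concentration required for 50% inhibition of growth.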 Activity calls are given as the source filed them. Cut-off read from the data, not from the text of the source: active = GI50 up to about 1.1 µM and inactive = higher.

As for `COc1c2c3c4c(c(OC)c(=O)c5c(O)cc(OC)c(c6c(OC)cc(O)c(c1=O)c63)c54)C(C(C)O)C2C(C)O` (stereo not given), the concentration for 50% growth inhibition (GI50) was 789 nM (active) in the test on 786-0; 530 nM (active) with CAKI-1; 789 nM (active) in the test on COLO 205; 392 nM (active) in the test on HL-60; 883 nM (active) in the test on LOX IMVI; 1.07 µM (active) in the test with M14. The GI50 was 1.84 µM (inactive) in the test with MDA-MB-231; 670 nM (active) in the test on MDA-MB-435; 767 nM (active) in the test with MDA-N; 505 nM (active) with MOLT-4; 796 nM (active) in the test with NCI-H226; 923 nM (active) with NCI/ADR-RES. The GI50 was 1.32 µM (inactive) in the test on OVCAR-4; 706 nM (active) in the test on RPMI-8226; 240 nM (active) with SK-MEL-5; 920 nM (active) in the test on SN12C; 1.18 µM (inactive) in the test on T47D; 405 nM (active) in the test with U-251. Also, the 50% growth inhibitory concentration (GI50) in the test on UACC-62 was 953 nM (active); in the test on UO-31, 390 nM (active).

The record behind these values is ChEMBL document CHEMBL1201862, “PubChem BioAssay data set” (2004).
